The values that follow come from PubChem BioAssay AID248 (DTP/NCI, 2004).

The subject of this test is L1210 leukemia ip in BDF1 mice, survival T/C. Put plainly: NCI In Vivo Anticancer Drug Screen. Data for tumor model L1210 Leukemia (intraperitoneal) in B6D2F1 (BDF1) mice. Conditions: higher = longer survival. An outline of the steps: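 In this screen, tumor-bearing mice given compound are compared to those given vehicle, and their survival values are reported as a treated-to-control quotient.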

The mark [1] stands for this setting: endpoint: mean survival time, dose: 100.0 mg/kg/injection, schedule: Q01DX009 (ip), vehicle: Klucel (hydroxypropylcellulose) (HPC).
The mark [2] stands for this setting: endpoint: mean survival time, dose: 100.0 mg/kg/injection, schedule: Q04DX003 (ip), vehicle: Klucel (hydroxypropylcellulose) (HPC).
Where [3] appears, read: endpoint: mean survival time, dose: 200.0 mg/kg/injection, schedule: Q01DX009 (ip), vehicle: Klucel (hydroxypropylcellulose) (HPC).
The mark [4] stands for this setting: endpoint: mean survival time, dose: 200.0 mg/kg/injection, schedule: Q04DX003 (ip), vehicle: Klucel (hydroxypropylcellulose) (HPC).
[5] abbreviates: endpoint: mean survival time, dose: 400.0 mg/kg/injection, schedule: Q01DX009 (ip), vehicle: Klucel (hydroxypropylcellulose) (HPC).
Where [6] appears, read: endpoint: mean survival time, dose: 400.0 mg/kg/injection, schedule: Q04DX003 (ip), vehicle: Klucel (hydroxypropylcellulose) (HPC).
The mark [7] stands for this setting: endpoint: mean survival time, dose: 100.0 mg/kg/injection, schedule: Q01DX001 (ip), vehicle: carboxymethylcellulose (CMC).
The mark [8] stands for this setting: endpoint: mean survival time, dose: 200.0 mg/kg/injection, schedule: Q01DX001 (ip), vehicle: carboxymethylcellulose (CMC).
[9] abbreviates: endpoint: mean survival time, dose: 400.0 mg/kg/injection, schedule: Q01DX001 (ip), vehicle: carboxymethylcellulose (CMC).
[10] abbreviates: endpoint: mean survival time, dose: 100.0 mg/kg/injection, schedule: Q04DX003 (ip), vehicle: saline with Tween-80.
Setting [11] is: endpoint: mean survival time, dose: 200.0 mg/kg/injection, schedule: Q04DX003 (ip), vehicle: saline with Tween-80.
The mark [12] stands for this setting: endpoint: mean survival time, dose: 400.0 mg/kg/injection, schedule: Q04DX003 (ip), vehicle: saline with Tween-80.

Several values for one entry are separate records, joined by “and”; a condition that tells them apart may be missing. Equal values may be shown once. Toxic doses and inconclusive results are not listed.

For `CCN(C(=O)COc1ccc(Cl)cc1)c1ccccc1C`, the T/C is 102 % of control under setting [1]; 101 % of control under setting [2]; 107 % of control under setting [3]; 97 % of control under setting [4]; 116 % of control under setting [5]; 98 % of control under setting [6].
For the compound `COc1cc(N[Si](C)(C)C)nc(OC)n1`, the T/C is, setting by setting: (endpoint: mean survival time, dose: 50.0 mg/kg/injection, schedule: Q01DX009 (ip), vehicle: saline) 100 % of control; (endpoint: mean survival time, dose: 100.0 mg/kg/injection, schedule: Q01DX009 (ip), vehicle: saline) 96 % of control; (endpoint: mean survival time, dose: 200.0 mg/kg/injection, schedule: Q01DX009 (ip), vehicle: saline) 92 % of control.
For the compound `O=C(Nc1ccc(F)cc1)Nc1ccc(Nc2ccccc2)cc1`, the T/C by setting is: under setting [7], 91 % of control; (endpoint: mean survival time, dose: 100.0 mg/kg/injection, schedule: Q01DX009 (ip), vehicle: carboxymethylcellulose (CMC)) 97 % of control; (endpoint: mean survival time, dose: 100.0 mg/kg/injection, schedule: Q04DX002 (ip), vehicle: carboxymethylcellulose (CMC)) 93 % of control and 86 % of control; (endpoint: mean survival time, dose: 100.0 mg/kg/injection, schedule: Q04DX003 (ip), vehicle: carboxymethylcellulose (CMC)) 88 % of control; under setting [8], 91 % of control; (endpoint: mean survival time, dose: 200.0 mg/kg/injection, schedule: Q01DX009 (ip), vehicle: carboxymethylcellulose (CMC)) 87 % of control. The T/C was 98 % of control and 86 % of control (endpoint: mean survival time, dose: 200.0 mg/kg/injection, schedule: Q04DX002 (ip), vehicle: carboxymethylcellulose (CMC)); 93 % of control (endpoint: mean survival time, dose: 200.0 mg/kg/injection, schedule: Q04DX003 (ip), vehicle: carboxymethylcellulose (CMC)); 91 % of control under setting [9]; 92 % of control and 87 % of control (endpoint: mean survival time, dose: 400.0 mg/kg/injection, schedule: Q01DX009 (ip), vehicle: carboxymethylcellulose (CMC)); 88 % of control (endpoint: mean survival time, dose: 400.0 mg/kg/injection, schedule: Q04DX002 (ip), vehicle: carboxymethylcellulose (CMC)); 88 % of control (endpoint: mean survival time, dose: 400.0 mg/kg/injection, schedule: Q04DX003 (ip), vehicle: carboxymethylcellulose (CMC)).
Consider `CCc1oc2cc([N+](=O)[O-])ccc2c1C(OC(C)=O)OC(C)=O`, for which the T/C runs as follows: under setting [1], 100 % of control; under setting [3], 105 % of control; under setting [5], 96 % of control.
Take `CC1=CC(=O)CC(=O)O1`: the T/C (endpoint: mean survival time, dose: 100.0 mg/kg/injection, schedule: Q01DX001 (ip), vehicle: Klucel (hydroxypropylcellulose) (HPC)) is 103 % of control; the T/C under setting [1] was 96 % of control; the T/C under setting [2] is 97 % of control; the T/C (endpoint: mean survival time, dose: 200.0 mg/kg/injection, schedule: Q01DX001 (ip), vehicle: Klucel (hydroxypropylcellulose) (HPC)) was 108 % of control; the T/C under setting [3] was 94 % of control; the T/C under setting [4] is 101 % of control. Also, the T/C is, setting by setting: (endpoint: mean survival time, dose: 400.0 mg/kg/injection, schedule: Q01DX001 (ip), vehicle: Klucel (hydroxypropylcellulose) (HPC)) 103 % of control; under setting [6], 95 % of control.
With `CCOC(=O)C(CCC#N)(CCC(=O)OC)C(C)=O` (configuration not stated), the T/C by setting is: (endpoint: mean survival time, dose: 100.0 mg/kg/injection, schedule: Q04DX002 (ip), vehicle: saline with Tween-80) 97 % of control; (endpoint: mean survival time, dose: 200.0 mg/kg/injection, schedule: Q04DX002 (ip), vehicle: saline with Tween-80) 116 % of control; (endpoint: mean survival time, dose: 400.0 mg/kg/injection, schedule: Q04DX002 (ip), vehicle: saline with Tween-80) 94 % of control.
As to `CC(=O)C1=C(c2ccccc2)NC(=O)NC1c1ccco1` (configuration not stated), the T/C by setting is: under setting [10], 94 % of control; under setting [11], 90 % of control; under setting [12], 92 % of control.
Take `CN1CCN(CCCN2c3ccccc3Sc3ccc(Cl)cc32)CC1`: the T/C by setting is: (endpoint: mean survival time, dose: 100.0 mg/kg/injection, schedule: Q04DX002 (ip), vehicle: Klucel (hydroxypropylcellulose) (HPC)) 104 % of control; (endpoint: mean survival time, dose: 200.0 mg/kg/injection, schedule: Q04DX002 (ip), vehicle: Klucel (hydroxypropylcellulose) (HPC)) 90 % of control; (endpoint: median survival time, dose: 6.25 mg/kg/injection, schedule: Q06HX032 (oral), vehicle: Klucel (hydroxypropylcellulose) (HPC)) 97 % of control; (endpoint: median survival time, dose: 6.25 mg/kg/injection, schedule: Q06HX044 (oral), vehicle: Klucel (hydroxypropylcellulose) (HPC)) 91 % of control; (endpoint: median survival time, dose: 12.5 mg/kg/injection, schedule: Q06HX032 (oral), vehicle: Klucel (hydroxypropylcellulose) (HPC)) 98 % of control and 107 % of control; (endpoint: median survival time, dose: 12.5 mg/kg/injection, schedule: Q06HX044 (oral), vehicle: Klucel (hydroxypropylcellulose) (HPC)) 95 % of control and 96 % of control. The T/C was 97 % of control and 116 % of control (endpoint: median survival time, dose: 25.0 mg/kg/injection, schedule: Q06HX032 (oral), vehicle: Klucel (hydroxypropylcellulose) (HPC)); 101 % of control and 76 % of control (endpoint: median survival time, dose: 25.0 mg/kg/injection, schedule: Q06HX044 (oral), vehicle: Klucel (hydroxypropylcellulose) (HPC)); 57 % of control and 69 % of control (endpoint: median survival time, dose: 50.0 mg/kg/injection, schedule: Q06HX032 (oral), vehicle: Klucel (hydroxypropylcellulose) (HPC)); 93 % of control and 35 % of control (endpoint: median survival time, dose: 50.0 mg/kg/injection, schedule: Q06HX044 (oral), vehicle: Klucel (hydroxypropylcellulose) (HPC)).
Consider `O=c1[nH]nc(Br)c(=O)n1C(c1ccccc1)c1ccccc1`, for which the T/C is, setting by setting: (endpoint: mean survival time, dose: 22.0 mg/kg/injection, schedule: Q01DX015 (ip), vehicle: carboxymethylcellulose (CMC)) 89 % of control; (endpoint: mean survival time, dose: 33.0 mg/kg/injection, schedule: Q01DX015 (ip), vehicle: carboxymethylcellulose (CMC)) 97 % of control; (endpoint: mean survival time, dose: 44.0 mg/kg/injection, schedule: Q01DX001 (ip), vehicle: carboxymethylcellulose (CMC)) 97 % of control and 101 % of control; (endpoint: mean survival time, dose: 50.0 mg/kg/injection, schedule: Q01DX015 (ip), vehicle: carboxymethylcellulose (CMC)) 95 % of control; (endpoint: mean survival time, dose: 66.0 mg/kg/injection, schedule: Q01DX001 (ip), vehicle: carboxymethylcellulose (CMC)) 94 % of control and 98 % of control; (endpoint: mean survival time, dose: 75.0 mg/kg/injection, schedule: Q01DX015 (ip), vehicle: carboxymethylcellulose (CMC)) 97 % of control. The T/C (endpoint: mean survival time, dose: 150.0 mg/kg/injection, schedule: Q01DX001 (ip), vehicle: carboxymethylcellulose (CMC)) is 95 % of control and 96 % of control; the T/C under setting [8] was 154 % of control; the T/C under setting [9] was 96 % of control.
`O=C(O)C1C2CCC(C2)C1C(=O)O` (configuration not stated): the T/C by setting is: under setting [10], 90 % of control; (endpoint: mean survival time, dose: 100.0 mg/kg/injection, schedule: Q04DX003 (ip), vehicle: saline) 100 % of control; under setting [11], 98 % of control; (endpoint: mean survival time, dose: 200.0 mg/kg/injection, schedule: Q04DX003 (ip), vehicle: saline) 100 % of control; under setting [12], 102 % of control; (endpoint: mean survival time, dose: 400.0 mg/kg/injection, schedule: Q04DX003 (ip), vehicle: saline) 105 % of control.
As for `Cn1nc(SCc2ccccc2)c(=O)[nH]c1=O`, the T/C by setting is: (endpoint: mean survival time, dose: 75.0 mg/kg/injection, schedule: Q01DX001 (ip), vehicle: saline) 97 % of control; (endpoint: mean survival time, dose: 150.0 mg/kg/injection, schedule: Q01DX001 (ip), vehicle: saline) 104 % of control.
`O=c1ccc2cc(Cl)ccc2o1`: the T/C reads like this: (endpoint: mean survival time, dose: 50.0 mg/kg/injection, schedule: Q01DX001 (ip), vehicle: carboxymethylcellulose (CMC)) 98 % of control; under setting [7], 98 % of control; under setting [8], 93 % of control; under setting [9], 98 % of control.
For `COc1[nH]c(=O)[nH]c(=O)c1OP(=O)(OC)OC`, the T/C is 98 % of control (endpoint: mean survival time, dose: 50.0 mg/kg/injection, schedule: Q01DX001 (ip), vehicle: saline); 98 % of control (endpoint: mean survival time, dose: 100.0 mg/kg/injection, schedule: Q01DX001 (ip), vehicle: saline); 98 % of control (endpoint: mean survival time, dose: 200.0 mg/kg/injection, schedule: Q01DX001 (ip), vehicle: saline); 89 % of control (endpoint: mean survival time, dose: 400.0 mg/kg/injection, schedule: Q01DX001 (ip), vehicle: saline).
As to `CCOC(=O)C(=Cc1c[nH]c2ccc(Br)cc12)C(=O)OCC`, the T/C (endpoint: mean survival time, dose: 100.0 mg/kg/injection, schedule: Q01DX009 (ip), vehicle: saline with Tween-80) was 98 % of control; the T/C under setting [10] was 89 % of control; the T/C (endpoint: mean survival time, dose: 200.0 mg/kg/injection, schedule: Q01DX009 (ip), vehicle: saline with Tween-80) was 104 % of control; the T/C under setting [11] was 96 % of control; the T/C (endpoint: mean survival time, dose: 400.0 mg/kg/injection, schedule: Q01DX009 (ip), vehicle: saline with Tween-80) was 101 % of control; the T/C under setting [12] is 91 % of control.
On to `CC(CO)(CO)N=Cc1cc(Br)ccc1O`, for which the T/C is 102 % of control under setting [7], 100 % of control under setting [8] and 86 % of control under setting [9].
